These results are taken from the Kinase Knowledgebase extract (Sharma et al. 2016).

Structures are written as SMILES. pIC50: −log10 of the molar value. Bounds are passed on as bounds.

This test addresses CDK2 (UniProt P24941). The experiment in a line: Enzyme Assay.
For the molecule `CC(C)c1cnn2c(NC3CCN(S(=O)(=O)C(C)C)CC3)cc(N[C@H]3CC[C@H](N)CC3)nc12`, the pIC50 is 4.93.

`CC(C)c1cnn2c(Nc3ccc(S(C)(=O)=O)cc3)cc(OC3CCCCC3)nc12` had a pIC50 of 6.02.

`CC(C)c1cnn2c(NCc3ccncc3)cc(-c3cccc(Br)c3)nc12` gave a pIC50 of 6.28.

The molecule `N[C@H]1CC[C@H](Nc2cc(Nc3ccc(S(=O)(=O)c4ccccc4)cc3)n3ncc(Cl)c3n2)CC1` had a pIC50 of 7.82.

As to `CC(C)c1cnn2c(Nc3ccc(S(=O)(=O)N(C)C)cc3)cc(Nc3ccncc3)nc12`, the pIC50 was 5.51.

For `CCc1cnn2c(Nc3ccc(C(N)=O)cc3)cc(N[C@H]3CC[C@@H](N)CC3)nc12`, the pIC50 is 6.46.

For the molecule `CSc1cc(Nc2cc(N[C@H]3CC[C@H](N)CC3)nc3ccnn23)ccc1S(=O)(=O)N(C)C`, the pIC50 was under 4.30.

In the case of `CC(C)c1cnn2c(Nc3ccc(S(=O)(=O)N4CCCC4)cc3)cc(Cl)nc12`, the pIC50 is 6.57.

Regarding `COc1cc(Nc2cc(N[C@H]3CC[C@H](N)CC3)nc3c(Br)cnn23)ccc1S(=O)(=O)N(C)C`, the pIC50 was 6.57.

The molecule `CCNC(=O)N[C@H]1CC[C@H](Nc2cc(Nc3ccc(S(=O)(=O)N(C)C)cc3)n3ncc(C(C)C)c3n2)CC1` showed a pIC50 of 6.52.

As to `N[C@H]1CC[C@H](Oc2cc(Nc3ccc(S(=O)(=O)c4ccccc4)cc3)n3ncc(Cl)c3n2)CC1`, the pIC50 was 7.35.

Take `CC(C)c1cnn2c(Nc3ccc(S(=O)(=O)N(C)CCO)cc3)cc(OCCN(C)C)nc12`: the pIC50 is 6.62.

Consider `N[C@H]1CC[C@H](Oc2cc(Nc3ccc(S(=O)(=O)c4ccccc4)cc3)n3ncc(Br)c3n2)CC1`, for which the pIC50 was 7.82.

`CC(C)c1cnn2c(Nc3ccc(S(=O)(=O)N(C)CCO)cc3)cc(NC3CCCC3)nc12` showed a pIC50 of 6.52.

For `CC(C)c1cnn2c(Nc3ccc(S(C)(=O)=O)cc3)cc(Cl)nc12`, the pIC50 is 6.66.
